Source: paper PMC5393024, “Discovery and characterization of natural tropolones as inhibitors of the antibacterial target CapF from Staphylococcus aureus” (Scientific Reports, 2015)

System: CapFΔ57-70
Assay: DSC thermal stability of CapFΔ57-70
Type: binding, Staphylococcus aureus
Details: 24 μM protein, 240 μM inhibitor
Protocol: Thermal stability of CapF was examined by DSC in a ultrasensitive VP-capillary micro-calorimeter (Microcal). Prior to the experiment the protein was equilibrated in a buffer composed of 50 mM HEPES (pH 7.5), 50 mM NaCl and 5% DMSO. The concentration of protein and inhibitor were adjusted to 24 μM and 240 μM, respectively. The samples were heated between 10 and 110 °C at a scan rate of 1 °C/min. Data analysis was carried out with ORIGIN7 using a two-state transition model.
Figure S6. Thermal stability of CapF examined with DSC. (a) CapFΔ57-70, and (b) CapFΔ57-70
in the presence of 3-isopropenyl-tropolone. Concentration of CapF and inhibitor was 24 µM and
240 µM, respectively. Experimental data and fitting curves are represented in black and red lines,
(1 picture or pasted object on this page, not shown here)

## C=C(C)c1ccccc(=O)c1O [3-isopropenyl-tropolone]
  ΔTM (decrease in thermal stability): 6.3 ± 0.2 °C
CapFΔ57-70 alone 60.7 ± 0.1
  TM: 54.4 ± 0.1 °C
